Measured values as given in patent publication US6541621B1, “Hypoxia inducible promoter” (Purdue University Research Foundation, priority 1997, dated 2003).
Entries after “also recorded” stand apart in the source; their conditions may differ.

How the values were obtained:
rice suspension cells [1] = assay: GUS activity of promoter-uidA construct shot into rice suspension cells; format: cell-based; settings: 2.38 kb region fused to the uidA gene
rice suspension cells [2] = assay: Protein synthesis in rice suspension cells; format: cell-based; settings: cycloheximide at 20 to 300 μM
pdc genes = assay: Northern blot of total RNA from suspension cells under anaerobic conditions with or without cycloheximide, common pdc probe; format: cell-based, rice; settings: 100 μM cycloheximide, suspension cells (Radon variety)
Experimental: Two-week-old uniform seedlings of rice (IR54 variety) were transferred to two liter flasks and subjected to anaerobic conditions. Seedlings were submerged in distilled water through which nitrogen gas was continuously bubbled. The anaerobic treatment was conducted in the dark at 25° C. Control seedlings were maintained in the dark at 25° C. Tissues were harvested and immersed in liquid nitrogen. Extraction of RNA was carried out according to the procedure of Logmann et al. (Anal Biochem 163: 16-20, 1987) with modifications. The frozen tissue (2 gm) was ground in liquid nitrogen in an autoclaved mortar and pestle, and transferred to autoclaved plastic centrifuge tubes. Extraction buffer (4M guanidine hydrochloride, 20 mM MES, 20 mM EDTA, 4 ml/g tissue) was added to each tube. After vigorous shaking and complete mixing the suspension was extracted once with phenol:chloroform:isoamyl alcohol (25:24:1) and centrifuged for 45 minutes at room temperature at 10,000 rpm in a Beckman centrifuge using JA-20 rotor. […] The RNA sample was subsequently washed with 80% ethanol and dissolved in DEPC-water after drying, and quantified spectrophotometrically. […]

[3] = system: Alcohol dehydrogenase (Adh) gene; assay: Northern blot of total RNA from suspension cells with or without cycloheximide, maize Adh probe; format: cell-based, rice; settings: for Adh transcripts: cycloheximide in the presence of O2, suspension cells
Experimental: Two-week-old uniform seedlings of rice (IR54 variety) were transferred to two liter flasks and subjected to anaerobic conditions. Seedlings were submerged in distilled water through which nitrogen gas was continuously bubbled. The anaerobic treatment was conducted in the dark at 25° C. Control seedlings were maintained in the dark at 25° C. Tissues were harvested and immersed in liquid nitrogen. Extraction of RNA was carried out according to the procedure of Logmann et al. (Anal Biochem 163: 16-20, 1987) with modifications. The frozen tissue (2 gm) was ground in liquid nitrogen in an autoclaved mortar and pestle, and transferred to autoclaved plastic centrifuge tubes. Extraction buffer (4M guanidine hydrochloride, 20 mM MES, 20 mM EDTA, 4 ml/g tissue) was added to each tube. After vigorous shaking and complete mixing the suspension was extracted once with phenol:chloroform:isoamyl alcohol (25:24:1) and centrifuged for 45 minutes at room temperature at 10,000 rpm in a Beckman centrifuge using JA-20 rotor. Then 0.2 volumes of 1 M acetic acid [diethyl pyrocarbonate (DEPC) -treated] were added to the supernatant to acidify the contents, and the RNA was precipitated by adding 0.7 volumes of ethanol after 1 hour incubation at −80° C. following centrifugation at 10,000 rpm for 10 minutes. The RNA pellet was subsequently dissolved in DEPC-treated water and reprecipitated using ⅓ volume of 8 M LiCl (overnight at 4° C.). The RNA sample was subsequently washed with 80% ethanol and dissolved in DEPC-water after drying, and quantified spectrophotometrically. Suspension cultures of Radon variety were also treated in the same way under anaerobic conditions. Cycloheximide was added at a final concentration of 100 μM, and anaerobic conditions were applied for various time periods after 30 minutes pretreatment. RNA was isolated using the same procedure described above.
Ten μg of total RNA isolated from suspension cells (Radon variety) was loaded in each lane and was resolved in 1.2% formaldehyde-agarose gel according to standard procedures. […]

Compound: 2.38 kb region: about 2.38 kb 5' upstream region of the rice pdc2 gene (hypoxia inducible promoter), fused to the uidA gene
- GUS activity (rice suspension cells [1]): showed GUS activity

Compound: C[C@@H]1C[C@@H]([C@H](O)CC2CC(=O)NC(=O)C2)C(=O)[C@@H](C)C1 [cycloheximide]
- protein synthesis (rice suspension cells [2]): reduce protein synthesis
- induction of pdc genes (pdc genes): reduce the induction of pdc genes; also recorded: reduced induction
- induction of Adh gene ([3]; 100 μM cycloheximide, anaerobic conditions, suspension cells): down-regulated; also recorded: reduced induction
- Adh transcripts [3]: induced Adh transcripts
- Adh transcripts ([3]; listed as Cycloheximide): induced Adh messages
